Data: patent US6133311A, “Method for preventing or treating elevated blood lipid level-related diseases by administering natural phenolic compounds” (priority 1998, dated 2000)

Assays:
HMG-CoA reductase = molecular target: T1, HMG-CoA reductase (Rattus norvegicus, UniProt P51639); test: HMG-CoA reductase inhibition in liver microsomes of fed rats; assay type: biochemical; conditions: liver microsomes of rats fed 0.1% compound, vs Control
T1 construct: from tissue; host or cells: rat liver microsomes
T1 sequence (P51639 1-887): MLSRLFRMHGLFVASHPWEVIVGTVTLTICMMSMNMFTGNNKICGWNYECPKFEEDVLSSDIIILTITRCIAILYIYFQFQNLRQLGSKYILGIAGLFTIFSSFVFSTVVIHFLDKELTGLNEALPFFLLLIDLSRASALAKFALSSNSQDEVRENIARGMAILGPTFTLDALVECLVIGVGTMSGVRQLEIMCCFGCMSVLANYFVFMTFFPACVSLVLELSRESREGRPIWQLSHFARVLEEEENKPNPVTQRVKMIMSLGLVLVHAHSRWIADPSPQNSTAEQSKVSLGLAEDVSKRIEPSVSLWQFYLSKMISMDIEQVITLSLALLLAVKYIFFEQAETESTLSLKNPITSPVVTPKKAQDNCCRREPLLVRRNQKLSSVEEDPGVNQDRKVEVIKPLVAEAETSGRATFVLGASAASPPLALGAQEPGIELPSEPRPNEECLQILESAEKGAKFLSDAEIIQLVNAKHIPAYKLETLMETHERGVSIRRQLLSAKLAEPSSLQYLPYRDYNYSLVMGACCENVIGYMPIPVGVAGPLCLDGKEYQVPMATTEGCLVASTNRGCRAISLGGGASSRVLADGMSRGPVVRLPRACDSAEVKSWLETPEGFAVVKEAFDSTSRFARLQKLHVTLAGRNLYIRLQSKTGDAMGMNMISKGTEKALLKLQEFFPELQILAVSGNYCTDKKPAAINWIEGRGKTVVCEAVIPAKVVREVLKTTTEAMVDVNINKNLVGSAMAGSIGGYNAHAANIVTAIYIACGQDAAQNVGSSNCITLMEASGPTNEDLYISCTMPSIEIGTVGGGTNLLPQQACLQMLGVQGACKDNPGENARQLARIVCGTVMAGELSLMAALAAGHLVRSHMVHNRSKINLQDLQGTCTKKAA
Procedure: Activity of tannin or gallic acid in HMG-CoA Reductase Inhibition
In order to determine the activity of HMG-CoA reductase, Hulcher's method was employed after some modification (see J. Lipid Res., 14, 625-641 (1973)). In this method, the concentration of the coenzyme-A (CoA-SH), which is produced when HMG-COA is reduced to a mevalonate salt by the action of HMG-COA reductase, is determined by spectroscopy and the activity of HMG-CoA reductase is calculated therefrom.
(Step 1) Preparation of microsomes
3 g of liver tissue taken from each group of rats of Example 2 was washed successively with 100 ml of a cold Saline (0.15M NaCl) and 100 ml of a cold buffer solution A (0.1M triethanolamine, HCl/0.2M EDTA/2 mM dithiothreitol (DTT)). The cold buffer solution A was added to the liver tissue in an amount of 2 ml per 1 g of the liver tissue and the mixture was homogenized with a homogenizer. […]
Then, the reactant was mixed with 20 μl of DTNB buffer solution (3mM DTNB/0.1M triethanolamine/0.2M EDTA, pH 7.4) and the absorbance of the mixture was determined at 412 nm to calculate the amount of CoA-SH (activity of HMG-COA reductase).
The extent of inhibition of HMG-CoA reductase activity by tannin and gallic acid were calculated based on the above result.

[1] = tested on: liver cells around the central vein; test: fatty liver: proportion of abnormal fat-containing cells in the liver of rabbits; assay type: in vivo, New Zealand White rabbits; conditions: 6 weeks; for A: Proportion of abnormal fat-containing liver cells (grade): 1% cholesterol diet plus 0.1% compound (Lovastatin 1 mg/kg), mean of grades 1+ to 4+, Control 3.2 ± 0.3; for inhibition of the formation of fatty liver: 1% cholesterol diet
Procedure: 30 three-month-old male New Zealand White rabbits (Yeonam Horticulture and Animal Husbandry College, Korea), each weighing about 2.5 to 2.6 kg, were raised under a condition of temperature 20+2° C., relative humidity 55±5%, and photoperiod 12L/12D. The rabbits were divided into 5 groups and 5 groups of rabbits were fed with 5 different diets, i.e., RC4 diet (Oriental Yeast Co., Japan) containing 1% cholesterol (Control group, 1); 1% cholesterol plus 1 mg/kg Lovastatin® (Merck, U.S.A.) (Lovastatin® group, 2); 1% cholesterol plus 0.1% tannin (3); 1% cholesterol plus 0.1% gallic acid (4); and 1% cholesterol plus 0.1% ellagic acid (5), respectively. RC4 diet comprises 7.6% moisture, 22.8% crude protein, 2.8% crude fat, 8.8% crude ash, 14.4% crude cellulose and 43.6% soluble nitrogen-free substances. Tannin, gallic acid and ellagic acid were purchased from Sigma Chemical Co. (St. Louis, Mo.).
The rabbits were fed for 6 weeks while being allowed free access to the diets and water.
(Step 5) Prevention of Hepatic Diseases

Row | Compound | Inhibition of HMG-CoA reductase activity (HMG-CoA reductase) [%] | A: Proportion of abnormal fat-containing liver cells (grade) [1] | inhibition of the formation of fatty liver [1]
1 | O=C(O)c1cc(O)c(O)c(O)c1 [Gallic acid, gallic acid] | 6.0 | 2.7 ± 0.4 | can significantly inhibit the formation of fatty liver
2 | tannin | 23.5 | 2.7 ± 0.4 | significantly inhibit the formation of fatty liver
